# Data reported in patent US8222242B2, “Nitric oxide releasing compounds” (The Regents of the University of California, priority 2008, dated 2012).
# Read-outs that look alike come from different tables or passages of the source.
# What was measured:
# [1] = test system: Malpighian tubules isolated from D. melanogaster; assay: Malpighian tubule fluid secretion; parameters: species or system Drosophila melanogaster
# Protocol: Malpighian tubules are the osmoregulatory organs of D. melanogaster, corresponding to vertebrate kidneys. Tubular fluid secretion is stimulated by NO and cGMP, and fluid secretion rates were measured as described previously (Broderick K E et al. (2005) J. Biol. Chem. 280:8678-85). Briefly, the Malpighian tubule pair of a fly was resected and suspended in mineral oil. […]
# Malpighian tubules are an excellent model for studying the effects of a drug on an intact organ system (Broderick K E et al. (2003) Am. J. Physiol. Cell Physiol. 285:C1207-18). […] Deta-NONOate may not be affected as much by cysteine in the medium, because it has a slower NO release rate and the intact drug can be transported intracellularly before much NO is released.
# [2] = test system: D. melanogaster; assay: Viability of injected D. melanogaster; settings: 1 μl injected; 1 mM (ascorbic acid 5 mM); observed 48 h
# Protocol: (A) Tubular secretion rates of Malpighian tubules isolated from D. melanogaster were measured, using half-strength Schneider's medium. Basal tubular secretion was measured at 0, 10, and 20 minutes; at 20 minutes (depicted by the arrow) 1 mM cobinamide (Cbi, open circles), 1 mM NO-Cbi (filled circles), 0.5 mM Deta-NONOate (diamonds), or 100 μM 8-CPT-cGMP (inverted triangles) were added. Results are the mean±S.D. of three independent experiments performed on Malpighian tubule pairs from 10 flies. […] (B). Flies were injected with 1 μl of 1 mM cobinamide (Cbi, open circles), 1 mM NO-Cbi (filled circles), 0.5 mM Deta-NONOate (diamonds), or 1 mM spermine NONOate (squares). […] The data are plotted as a Kaplan-Meier survival curve, and are the mean±SD of three experiments, with 10 flies per condition per experiment. […] (C). Flies were injected with 1 μl of water (control, open bar), 1 mM cobinamide (Cbi, grey bar), or 1 mM NO-Cbi (black bars). Flies were killed and extracts were prepared at 3 hours for the water- and cobinamide-injected flies, and at the indicated times for the NO-Cbi-injected flies. Nitrite and nitrate in the extracts were measured using an enhanced Griess reagent.
# The fluid volume of a fly is […], and thus, the injected agent was diluted about 10-fold. […]
# [3] = test system: D. melanogaster; assay: Nitrite and nitrate in extracts of injected flies; format: in vivo, Drosophila melanogaster; settings: 1 μl of 1 mM NO-Cbi injected
# Protocol: Nitrite and nitrate in extracts of NO-Cbi-injected flies were measured, and, as in the studies with CS-54 cells, a little over 50% of the injected NO as nitrite and nitrate was recovered (FIG. 3c). The nitrite/nitrate levels reached a maximum at 1 hour, and returned to that of water-injected flies at 4-5 hours (FIG. 3c). […] Nitrite and nitrate excretion likely explained the only partial recovery of NO.
# [4] = test system: isolated mouse hearts; assay: Coronary flow in isolated perfused mouse hearts (Langendorff)
# Protocol: (§1) Hearts and aortas were removed from NIH Swiss mice anesthetized with sodium nembutal, and coronary flow was measured in the hearts using a Langendorff preparation (FIG. 5a) and relaxation of aortic rings was measured after inducing constriction of the rings with prostaglandin F2α (FIG. 5b). The hearts and aortic rings were treated with a range of concentrations of NO-Cbi (filled circles), nitroglycerin (open circles, dotted line, FIG. 5a), and sodium nitroprusside (open circles, FIG. 5b). Coronary flow was measured on the same hearts for both NO-Cbi and nitroglycerin after an appropriate wash-out period between drugs, and aortic ring relaxation was measured on two rings from the same aorta for NO-Cbi and sodium nitroprusside. The data are the mean of two independent experiments performed on two separate hearts in each experiment (FIG. 5a), and the mean±SEM of two independent experiments performed on three separate aortic rings in each experiment (FIG. 5b).
# Coronary flow was measured in isolated perfused mouse hearts in a Langendorff system, and was 10.8±0.5 ml/min/g wet weight (n=7 hearts) under basal conditions. […] The latter value is similar to maximal coronary flow of 24.6±1.8 ml/min/g wet weight obtained with 62 μM adenosine. For nitroglycerin to increase coronary flow to that of NO-Cbi, the nitroglycerin concentration had to be increased to 770 μM, or about 100-fold greater than the NO-Cbi concentration (FIG. 5a).
# [5] = test system: mouse aortic rings; assay: Relaxation of mouse aortic rings constricted with prostaglandin F2α; settings: rings pretreated with 2 μM prostaglandin F2α; read-out: EC50, concentration that induced half-maximal relaxation
# Protocol: as §1
# Relaxation of aortic contraction was measured in 3 mm rings cut from thoracic aortas of mice; the rings were pretreated with 2 μM prostaglandin F2α to produce 0.5-1 g of active tension.
# [6] = test system: New Zealand white rabbit; assay: Oral (nasogastric) NO-Cbi and rabbit blood pressure; format: in vivo
# Protocol: An anesthetized New Zealand white rabbit was given NO-Cbi via a nasogastric tube at 10 and 100 (0.32 and 3.2 mg/kg) (FIG. 10a) or 10 and 50 (0.32 and 1.6 mg/kg) (FIG. 10b) times the dose used intravenously. Blood pressure was monitored continuously by an intra-arterial catheter, and was recorded every 5 minutes. The blood pressure was allowed to stabilize for 10 minutes prior to administering NO-Cbi.
# [7] = for change of spectrum: room temperature, open to air
# Protocol: NO-Cbi was diluted 100-fold into DMEM containing 10% FBS, transferred to a cuvette, and analyzed immediately by spectrophotometry between 300 and 600 nm (curve a). Spectra were obtained every 30 minutes for 3 hours, generating the family of curves, with curve b being the 3 hour spectrum; in the inset, curve b is the spectrum at 16 hours. The cuvette was open to air and kept at room temperature. The same experiment was repeated two times with similar results.
# NO-Cbi was diluted 100-fold in water, PBS, or DMEM containing 10% FBS to a final concentration of 50 uM. It was analyzed spectrophotometrically between 300 and 600 nm in a Kontron 860 spectrophotometer, and by mass spectroscopy using a LCQ classic ion-trap-type mass spectrometer (Thermo-Finnigan) at 160° C. capillary temperature and 5000V spray voltage. The mass spectrometry data were acquired in profile mode and analyzed on Xcalibur software.
# [8] = incubated with excess heme; cited from earlier work
# [9] = test system: mice; format: in vivo, mouse; settings: 0.6 nmol three times at 32 minute intervals
structure (smiles),measurement,setting,value
"CC1=C2[N+]3=C(C=C4[N+]5=C(C(C)=C6[N]7C(C(CC(N)=O)C6(C)CCC(=O)NCC(C)O)C6(C)[N+](=C1C(CCC(N)=O)C6(C)CC(N)=O)[Co-3]753[N]=O)C(CCC(N)=O)C4(C)C)C(CCC(N)=O)C2(C)CC(N)=O (stereo not shown) [NO-Cbi, nitrosyl cobinamide]",rate of tubular secretion relative to cobinamide-treated tubules,"[1]; 1 mM, 70 minute time point (50 minutes after adding drugs), half-strength Schneider's medium",1.6 times
same,fluid secretion,"[1]; 1 mM, half-strength Schneider's medium","stimulated fluid secretion to a similar extent as 100 μM 8-CPT-cGMP, but somewhat less than 500 μM Deta-NONOate"
same,fluid secretion,[1]; full strength of Schneider's medium,no effect
same,fly killing / toxicity to flies,[2],killed the flies as effectively as 1 mM spermine NONOate
same,injected NO recovered as nitrite and nitrate,[3],over 50%
same,time of maximum nitrite/nitrate levels,[3],1 h
same,time of return of nitrite/nitrate levels to that of water-injected flies,[3],4 to 5 h
same,low concentration that significantly increased coronary flow,[4],20 nM
same,coronary flow,[4]; 7 μM infused,22.8±1.2 ml/min/g wet weight
same,increase of coronary flow,[4]; 7 μM infused,more than two-fold
same,EC50,[5],195 ± 12 nM
same,blood pressure on the higher dose,[6]; 3.2 or 1.6 mg/kg via nasogastric tube,steeper decrease
same,time until blood pressure began to decrease,[6]; low dose (0.32 mg/kg) via nasogastric tube,≤ 10 min
same,blood pressure after 100 or 180 minutes,[6]; via nasogastric tube,remained lower than baseline
same,duration of effect after each dose,[6]; via nasogastric tube,at least 40 minutes
same,time for spectrum to change to that of cobinamide,[7]; DMEM containing 10% FBS,about 3 h
same,effect on NO-Cbi's half-life,[7]; buffer,significantly reduced
same,half-life,[7]; buffer,~90 min
same,change of spectrum,[7]; phosphate-buffered saline (PBS),little spectral change
same,change of spectrum,"[7]; water, 16 hours",did not change
same,half-life,[8],short
same,blood pressure and heart rate on repeated injections,[9],a decrease in blood pressure and increase in heart rate was observed with each injection
